Test results as given in patent EP4644383A1 (Jiangsu Yahong Meditech Co., Ltd., priority 2022, dated 2024).
Where two headings read alike, the source gives them in different places.

Tested on: Ba/F3-BCR-FGFR1 cells
Test: Inhibition of proliferation activity of Ba/F3-BCR-FGFR1 cells (CellTiter-Glo)
Assay type: cell-based
Details: read-out: IC50 (nM) Ba/F3-BCR-FGFR1
Procedure: The present experiment used CellTiter-Glo® Luminescent Cell Viability Assay (Promega: G7573) kit, which was a homogeneous cell viability detection method and determined the cell viability of cultured cells by quantifying ATP. • ① Ba/F3-BCR-FGFR1 or Ba/F3-FGFR3-BAIAP2L1 cells were cultured in 1640 complete medium (Gibco: 11879020) (10% FBS (Gibco: 10091-148)+1% Pen Strep (Gibco: 15140122)) under the condition of 37°C and 5% CO2. • (2) The cells in logarithmic growth phase were harvested and counted using a […]. The trypan blue exclusion method was used to detect cell viability to ensure the cell viability was above 90%. • ③ The cell density was adjusted using 1640 complete medium, and then, the cells were seeded into a 96-well cell culture plate at 90 µL/well with a total of 2000 cells. • ④ A 10-fold drug solution was prepared starting from a maximum drug concentration of 10 µM and 4-fold serially diluted into10 concentrations. Then, 10 µL of each of the serially diluted compounds was transferred to the corresponding experimental wells of a 96-well cell plate, with two replicates for each drug concentration. • ⑤ The 96-well plate with the cells that had been treated with the drugs was placed under the condition of 37°C and 5% CO2 to be further cultured for 72 hours, and then analyzed by CTG. • ⑥ The CTG reagent was melted and the cell plate was equilibrated to room temperature for 30 minutes. • ⑦ 50 µL of the CTG solution was added to each well. • ⑧ The cell plate was shaken on an orbital shaker for 5 minutes to lyse the cells. • ⑨ The cell plate was placed at room temperature for 20 minutes to stabilize the luminescence signal. The luminescence values were read to collect the data. • ⑩ The data were analyzed using XLFit excel plugin version 5.5.0.5, and fitted with non-linear S-curve regression to obtain the dose-response curves and thus calculate the IC50 values. Y = Bottom + (Top-Bottom)/((1+(IC50/X))^(∧) HillSlope [formula]
"Top" refers to the maximum response, "Bottom" refers to the minimum response, and "HillSlope" refers to the slope of the curve.
"Max" represents the average value of the cell control+DMSO, and "Min" represents the average value of the medium control+DMSO.

[1] = Ba/F3-BCR-FGFR1 cells, 72 hours, CTG

Row | SMILES | IC50 [1] [nM] | IC50 (72 h) [nM]
1 | CC(Oc1ccc2[nH]nc(-c3cnn(C)c3)c2c1)c1cccn2ncnc12 (stereo not shown) [Example 101, 8-(1-((3-(1-methyl-1H-pyrazol-4-yl)-1H-indazol-5-yl)oxy)ethyl)-[1,2,4]triazolo[1,5-a]pyridine] | 246 | 
2 | C[C@@H](Oc1ccc2[nH]nc(-c3cnn(CCN4CCS(=O)(=O)CC4)c3)c2n1)c1c(Cl)cncc1Cl [Example 55, (R)-4-(2-(4-(5-(1-(3,5-dichloropyridin-4-yl)ethoxy)-1H-pyrazolo[4,3-b]pyridin-3-yl)-1H-pyrazol-1-yl)ethyl)thiomorph oline 1,1-dioxide] | 88.5 | 
3 | COCC(=O)N1CC(n2cc(-c3n[nH]c4ccc(OC(C)c5cccc6nccnc56)cc34)cn2)C1 (stereo not shown) [Example 188, 2-methoxy-1-(3-(4-(5-(1-(quinoxalin-5-yl)ethoxy)-1H-indazol-3-yl)-1H-pyrazol-1-yl)azetidin-1-yl)ethan-1-one] | 277 | 
4 | C[C@@H](Oc1ccc2[nH]nc(-c3cnn(C)c3)c2n1)c1c(Cl)cncc1Cl [Example 29, (R)-5-(1-(3,5-dichloropyridin-4-yl)ethoxy)-3-(1-methyl-1H-pyrazol-4-yl)-1H-pyrazolo[4,3-b]pyridine] | 38 | 
5 | CC(Oc1ccc2[nH]nc(-c3cnn(C4CN(C(=O)C(C)(C)O)C4)c3)c2c1)c1cccc2nccnc12 (stereo not shown) [Example 190, 2-hydroxy-2-methyl-1-(3-(4-(5-(1-(quinoxalin-5-yl)ethoxy)-1H-indazol-3-yl)-1H-pyrazol-1-yl)azetidin-1-yl)propan-1-one] | 425 | 
6 | Cc1ccc2ncccc2c1C(C)Oc1ccc2[nH]nc(-c3cnn(C)c3)c2c1 (stereo not shown) [Example 95, 6-methyl-5-(1-((3-(1-methyl-1H-pyrazol-4-yl)-1H-indazol-5-yl)oxy)ethyl)quinolinee] | 406 | 
7 | CC(Oc1cc2c(-c3cnn(C)c3)n[nH]c2cc1F)c1cc(Cl)cc2nccnc12 (stereo not shown) [Example 227, 7-chloro-5-(1-((6-fluoro-3-(1-methyl-1H-pyrazol-4-yl)-1H-indazol-5-yl)oxy)ethyl)qu inoxaline] | 390 | 
8 | CC(Oc1ccc2[nH]nc(-c3cnn(C)c3)c2c1)c1cccc2nccnc12 (stereo not shown) [Example 92, 5-(1-((3-(1-methyl-1H-pyrazol-4-yl)-1H-indazol-5-yl)oxy)ethyl)quin oxaline] | 98.6 | 
9 | CC(Oc1ccc2[nH]nc(-c3cnn(C)c3)c2c1)c1c(C(F)F)ccc2ncccc12 (stereo not shown) [Example 127, 6-(difluoromethyl)-5-(1-((3-(1-methyl-1H-pyrazol-4-yl)-1H-indazol-5-yl)oxy)ethyl)quinoline] | 941 | 
10 | C[C@@H](Oc1ccc2[nH]nc(-c3ccc(S(C)(=N)=O)nc3)c2c1)c1c(Cl)cncc1Cl (stereo partly drawn) [Comparative Example 85, (5-(5-((R)-1-(3,5-dichloropyridin-4-yl)ethoxy)-1H-indazol-3-yl)pyridin-2-yl)(imino)(methyl)-sulfanone, reference compound] |  | 615
11 | CC(Oc1ccc2[nH]nc(-c3cnn(C)c3)c2c1)c1cccc2ncccc12 (stereo not shown) [Example 88, 5-(1-((3-(1-methyl-1H-pyrazol-4-yl)-1H-indazol-5-yl)oxy)ethyl)quin oline] | 3420 | 
12 | CC(=O)N1CC(n2cc(-c3n[nH]c4ccc(OC(C)c5cccc6nccnc56)cc34)cn2)C1 (stereo not shown) [Example 218, 1-(3-(4-(5-(1-(quinoxalin-5-yl)ethoxy)-1H-indazol-3-yl)-1H-pyrazol-1-yl)azetidin-1-yl)ethan-1-one] | 441 | 
13 | Cc1cc2nccnc2c(C(C)Oc2ccc3[nH]nc(-c4cnn(C)c4)c3c2)n1 (stereo not shown) [Example 183, 7-methyl-5-(1-((3-(1-methyl-1H-pyrazol-4-yl)-1H-indazol-5-yl)oxy)ethyl)pyridino [3,4-b]pyrazine] | 55.3 | 
14 | C[C@@H](Oc1cc(F)c2[nH]nc(-c3cnn(CCN4CCOCC4)c3)c2c1)c1c(Cl)cncc1Cl [Example 12, (R)-4-(2-(4-(5-(1-(3,5-dichloropyridin-4-yl)ethoxy)-7-fluoro-1H-indazol-3-yl)-1H-pyrazol-1-yl)ethyl)morph oline] | 592 | 
15 | CC(Oc1ccc2[nH]nc(-c3cnn(C)c3)c2c1)c1cc(Cl)cc2nccnc12 (stereo not shown) [Example 136, 7-chloro-5-(1-((3-(1-methyl-1H-pyrazol-4-yl)-1H-indazol-5-yl)oxy)ethyl)qu inoxaline] | 377 | 
16 | CC(Oc1ccc2[nH]nc(-c3cnn(C)c3)c2c1)c1nc(C(F)F)cc2nccnc12 (stereo not shown) [Example 236, 7-(difluoromethyl)-5-(1-((3-(1-methyl-1H-pyrazol-4-yl)-1H-indazol-5-yl)oxy)ethyl)pyridino[3,4-b]pyrazine] | 161 | 
17 | C[C@@H](Oc1ccc2[nH]nc(-c3cnn(CCN4CCN(C)C(=O)C4)c3)c2n1)c1c(Cl)cncc1Cl [Example 54, (R)-4-(2-(4-(5-(1-(3,5-dichloropyridin-4-yl)ethoxy)-1H-pyrazolo[4,3-b]pyridin-3-yl)-1H-pyrazol-1-yl)ethyl)-1-methylpiperazin-2-one] | 177 | 
18 | [2H]C([2H])([2H])c1cc2nccnc2c(C(C)Oc2ccc3[nH]nc(-c4cnn(C)c4)c3c2)n1 (stereo not shown) [Example 241] | 62.3 | 
19 | CC(Oc1ccc2[nH]nc(-c3cnn(C)c3)c2c1)c1c(CF)ccc2ncccc12 (stereo not shown) [Example 130, 6-(fluoromethyl)-5-(1-((3-(1-methyl-1H-pyrazol-4-yl)-1H-indazol-5-yl)oxy)ethyl)q uinoline] | 1190 | 
